Activity calls are given as the source filed them.
Columns and labels:
HEK293 [1] = assay: cells; assay type: functional, cell-based; settings: Homo sapiens
[2] = target: T1, Nuclear receptor subfamily 0 group B member 1 (Homo sapiens, UniProt P51843); assay: Luminescence-based cell-based high throughput dose response assay for inhibitors of the orphan nuclear receptor subfamily 0, group B, member 1 (DAX1; NR0B1). [Related pubchem assays (depositor defined):AID504766, AID504790]; assay type: functional
T1 sequence (P51843 whole entry): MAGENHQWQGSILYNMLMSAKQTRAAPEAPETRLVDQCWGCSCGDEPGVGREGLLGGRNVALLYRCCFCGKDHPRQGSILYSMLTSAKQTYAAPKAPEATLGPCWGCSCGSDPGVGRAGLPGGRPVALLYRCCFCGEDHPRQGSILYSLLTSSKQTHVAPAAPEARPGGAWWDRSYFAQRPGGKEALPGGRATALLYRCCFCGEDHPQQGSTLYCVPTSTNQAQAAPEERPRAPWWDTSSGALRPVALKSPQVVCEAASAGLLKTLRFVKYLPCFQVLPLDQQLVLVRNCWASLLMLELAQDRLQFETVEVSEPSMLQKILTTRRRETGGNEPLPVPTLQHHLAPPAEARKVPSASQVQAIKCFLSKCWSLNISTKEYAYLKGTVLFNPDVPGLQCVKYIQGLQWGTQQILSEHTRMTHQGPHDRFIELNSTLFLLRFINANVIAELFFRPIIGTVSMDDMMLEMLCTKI

[3] = target: Ras and Rab interactor 1/Tyrosine-protein kinase ABL1 (Homo sapiens, UniProt P00519+Q13671); assay type: functional;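 further: biochemical TR-FRET dose-response test measuring inhibition of binding between Rin1 and Abl proteins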
Ras and Rab interactor 1/Tyrosine-protein kinase ABL1, sequence (P00519 whole entry): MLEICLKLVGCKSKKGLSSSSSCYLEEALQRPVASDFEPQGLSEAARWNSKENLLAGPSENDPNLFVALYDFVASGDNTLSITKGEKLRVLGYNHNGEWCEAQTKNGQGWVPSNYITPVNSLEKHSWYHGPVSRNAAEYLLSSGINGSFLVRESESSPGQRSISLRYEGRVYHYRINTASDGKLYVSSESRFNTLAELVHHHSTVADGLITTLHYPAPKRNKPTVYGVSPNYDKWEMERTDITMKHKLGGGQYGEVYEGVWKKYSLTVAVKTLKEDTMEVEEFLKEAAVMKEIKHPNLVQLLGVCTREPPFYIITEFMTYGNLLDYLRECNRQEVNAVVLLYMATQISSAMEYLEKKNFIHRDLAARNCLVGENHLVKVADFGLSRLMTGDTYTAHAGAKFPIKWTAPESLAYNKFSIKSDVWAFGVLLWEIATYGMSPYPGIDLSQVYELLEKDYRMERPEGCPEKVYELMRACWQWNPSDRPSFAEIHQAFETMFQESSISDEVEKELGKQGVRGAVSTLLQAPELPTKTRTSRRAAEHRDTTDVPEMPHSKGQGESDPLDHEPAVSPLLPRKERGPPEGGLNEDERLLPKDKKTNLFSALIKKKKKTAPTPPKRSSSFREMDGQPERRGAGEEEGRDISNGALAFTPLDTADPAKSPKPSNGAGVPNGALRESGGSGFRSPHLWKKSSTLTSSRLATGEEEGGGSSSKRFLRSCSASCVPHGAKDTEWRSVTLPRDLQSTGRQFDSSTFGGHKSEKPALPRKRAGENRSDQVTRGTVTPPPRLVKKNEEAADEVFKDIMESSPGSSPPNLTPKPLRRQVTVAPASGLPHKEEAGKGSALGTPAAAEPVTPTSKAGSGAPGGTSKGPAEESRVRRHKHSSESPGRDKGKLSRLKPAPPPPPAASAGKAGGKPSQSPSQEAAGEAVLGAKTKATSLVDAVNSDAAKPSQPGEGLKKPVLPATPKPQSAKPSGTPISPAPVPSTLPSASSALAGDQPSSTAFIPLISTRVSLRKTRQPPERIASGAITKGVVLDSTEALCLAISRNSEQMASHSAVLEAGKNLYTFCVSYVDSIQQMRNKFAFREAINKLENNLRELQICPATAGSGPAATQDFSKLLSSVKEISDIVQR
Ras and Rab interactor 1/Tyrosine-protein kinase ABL1, sequence (Q13671 whole entry): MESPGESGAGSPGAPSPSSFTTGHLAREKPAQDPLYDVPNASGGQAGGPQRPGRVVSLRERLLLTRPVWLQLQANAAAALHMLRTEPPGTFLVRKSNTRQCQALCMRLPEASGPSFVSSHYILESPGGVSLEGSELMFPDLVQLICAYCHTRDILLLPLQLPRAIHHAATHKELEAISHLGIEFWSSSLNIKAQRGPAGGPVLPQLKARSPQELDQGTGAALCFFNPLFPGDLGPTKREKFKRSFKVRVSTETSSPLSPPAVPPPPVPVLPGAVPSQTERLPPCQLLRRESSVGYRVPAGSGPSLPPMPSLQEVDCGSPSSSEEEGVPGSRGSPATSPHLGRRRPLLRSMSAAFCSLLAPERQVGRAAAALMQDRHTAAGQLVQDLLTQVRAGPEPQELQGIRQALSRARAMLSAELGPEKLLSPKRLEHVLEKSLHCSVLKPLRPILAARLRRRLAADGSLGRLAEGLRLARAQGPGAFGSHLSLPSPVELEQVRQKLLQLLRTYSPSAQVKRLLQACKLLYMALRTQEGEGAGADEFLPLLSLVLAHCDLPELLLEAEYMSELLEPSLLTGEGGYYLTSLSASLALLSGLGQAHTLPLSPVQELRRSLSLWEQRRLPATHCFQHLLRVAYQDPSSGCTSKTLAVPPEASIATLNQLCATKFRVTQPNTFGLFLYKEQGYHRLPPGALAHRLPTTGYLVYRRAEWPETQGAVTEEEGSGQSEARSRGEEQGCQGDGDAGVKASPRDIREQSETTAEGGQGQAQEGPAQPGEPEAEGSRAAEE

HeLa = assay: ATP-based viability loss in HeLa cells – cell-based, CellTiter-Glo luminescence, cherry-pick samples, cytotoxicity control for MITF activator project, dose response (AID 540259); assay type: functional; settings: Homo sapiens
[4] = Luminescence Cell-Based Dose Retest to Confirm Inhibitors of Cancer Stem Cells. [Related pubchem assays (depositor defined):AID2717, AID2721]; assay type: functional; settings: Homo sapiens
[5] = target: T2, Heat shock factor protein 1 (Mus musculus, UniProt P38532); assay: enhancement of HSF1-driven luciferase signal – cell-based, NIH3T3, luminescence, dose retest, confirmation (AID 435004); assay type: functional;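 further: stress induced by proteasome inhibitor MG132 added 30 min after compound; luciferase reporter driven by HSF1 response element in NIH3T3 cells; actives raise luminescence as potentiators of the MG132 stress response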
T2 sequence (P38532 whole entry): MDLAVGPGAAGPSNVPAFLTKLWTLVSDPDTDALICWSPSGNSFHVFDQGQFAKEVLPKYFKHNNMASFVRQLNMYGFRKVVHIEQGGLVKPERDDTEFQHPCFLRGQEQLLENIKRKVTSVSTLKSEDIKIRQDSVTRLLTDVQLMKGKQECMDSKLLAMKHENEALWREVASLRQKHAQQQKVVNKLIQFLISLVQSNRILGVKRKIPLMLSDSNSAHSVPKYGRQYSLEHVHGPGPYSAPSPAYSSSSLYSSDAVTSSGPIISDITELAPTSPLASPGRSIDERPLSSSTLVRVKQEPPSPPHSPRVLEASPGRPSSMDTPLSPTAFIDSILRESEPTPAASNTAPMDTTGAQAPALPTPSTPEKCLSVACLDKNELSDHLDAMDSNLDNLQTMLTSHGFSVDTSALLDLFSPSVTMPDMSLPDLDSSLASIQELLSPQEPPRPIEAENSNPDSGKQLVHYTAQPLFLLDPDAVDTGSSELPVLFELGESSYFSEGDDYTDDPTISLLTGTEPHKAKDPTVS

Vero [6] = assay: cells; assay type: functional, cell-based; settings: Chlorocebus sabaeus
Vero [7] = assay: cells; assay type: functional; settings: Chlorocebus sabaeus
Protein Wnt-3a = Protein Wnt-3a (Mus musculus, UniProt P27467); assay: antagonism of Wnt3a pathway luciferase reporter – Wnt-LIGHT cells, luminescence, selectivity assay for Gli-SUFU antagonist project, dose response (AID 651570); assay type: functional; settings: read-out: IC50_Mean;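 further: Wnt-LIGHT reporter cells stimulated with conditioned medium from Wnt3a-producing cells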
Protein Wnt-3a, sequence (P27467 whole entry): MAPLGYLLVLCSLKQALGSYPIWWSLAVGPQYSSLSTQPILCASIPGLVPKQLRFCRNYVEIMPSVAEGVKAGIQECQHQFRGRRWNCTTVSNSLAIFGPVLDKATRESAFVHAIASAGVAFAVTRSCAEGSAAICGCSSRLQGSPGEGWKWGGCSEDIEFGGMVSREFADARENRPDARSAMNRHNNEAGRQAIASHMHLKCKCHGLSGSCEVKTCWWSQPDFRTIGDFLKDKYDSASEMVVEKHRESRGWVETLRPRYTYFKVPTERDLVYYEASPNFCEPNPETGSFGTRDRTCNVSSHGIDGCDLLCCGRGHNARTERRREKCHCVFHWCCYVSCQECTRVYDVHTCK

[8] = Luminescence-based cell-based high throughput dose response assay to identify activators of the DAF-12 from the parasite S. stercoralis (ssDAF-12).; assay type: functional
Tumor necrosis factor = Tumor necrosis factor (Homo sapiens, UniProt P01375); assay: analog potency on TNFa NF-kB signaling – cell-based, revised, SAR follow-up (AID 2337); assay type: functional
Tumor necrosis factor, sequence (P01375 whole entry, the tested form may be a part): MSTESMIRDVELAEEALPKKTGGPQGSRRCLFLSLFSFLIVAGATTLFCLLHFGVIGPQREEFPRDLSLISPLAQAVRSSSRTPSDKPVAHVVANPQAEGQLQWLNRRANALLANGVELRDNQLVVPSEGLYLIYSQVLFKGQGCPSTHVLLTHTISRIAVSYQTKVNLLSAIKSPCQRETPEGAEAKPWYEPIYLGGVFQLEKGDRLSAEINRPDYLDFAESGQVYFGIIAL

[9] = target: T3, Nucleotide-binding oligomerization domain-containing protein 1 (Homo sapiens, UniProt Q9Y239); assay: blockers of NOD1 pathway activity – revised, SAR follow-up (AID 2333); assay type: functional
T3 sequence (Q9Y239 whole entry): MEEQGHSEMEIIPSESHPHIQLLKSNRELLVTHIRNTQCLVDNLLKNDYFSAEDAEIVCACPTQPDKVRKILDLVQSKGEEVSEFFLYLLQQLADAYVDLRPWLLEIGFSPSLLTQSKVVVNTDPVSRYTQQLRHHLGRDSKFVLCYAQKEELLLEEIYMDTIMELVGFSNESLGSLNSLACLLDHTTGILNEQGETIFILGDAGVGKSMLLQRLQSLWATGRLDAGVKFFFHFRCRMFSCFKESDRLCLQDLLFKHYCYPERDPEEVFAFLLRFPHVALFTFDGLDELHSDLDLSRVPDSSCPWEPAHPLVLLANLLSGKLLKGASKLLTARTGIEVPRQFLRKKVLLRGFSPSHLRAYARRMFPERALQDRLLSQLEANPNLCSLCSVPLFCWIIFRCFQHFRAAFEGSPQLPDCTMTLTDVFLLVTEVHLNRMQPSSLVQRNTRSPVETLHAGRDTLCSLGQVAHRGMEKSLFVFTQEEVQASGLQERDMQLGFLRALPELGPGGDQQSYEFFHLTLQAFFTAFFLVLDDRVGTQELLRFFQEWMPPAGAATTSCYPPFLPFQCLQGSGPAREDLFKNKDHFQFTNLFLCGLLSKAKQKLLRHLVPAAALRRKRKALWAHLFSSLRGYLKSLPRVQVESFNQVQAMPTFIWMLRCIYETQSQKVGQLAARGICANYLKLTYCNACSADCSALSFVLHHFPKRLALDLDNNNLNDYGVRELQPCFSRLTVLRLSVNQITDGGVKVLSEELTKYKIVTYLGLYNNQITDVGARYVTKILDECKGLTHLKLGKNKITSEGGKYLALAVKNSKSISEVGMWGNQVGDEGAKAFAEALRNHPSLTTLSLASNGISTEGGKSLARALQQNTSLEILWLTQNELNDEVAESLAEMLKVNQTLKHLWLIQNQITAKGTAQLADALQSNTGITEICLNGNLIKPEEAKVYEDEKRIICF

INS1 = assay: INS-1E survival protection against cytokine death – cell-based, luminescence, retest, dose response (AID 449756); assay type: functional; settings: Rattus norvegicus;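 further: cell death triggered by IL-1 beta plus TNF-alpha plus IFN-gamma mixture; protective hits raise ATP signal compared with cytokine alone wells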
Galanin receptor type 3 = Galanin receptor type 3 (Homo sapiens, UniProt O60755); assay: Fluorescence-based cell-based primary high throughput dose response assay to identify antagonists of the Galanin Receptor 3 (GalR3).; assay type: functional
Galanin receptor type 3, sequence (O60755 whole entry): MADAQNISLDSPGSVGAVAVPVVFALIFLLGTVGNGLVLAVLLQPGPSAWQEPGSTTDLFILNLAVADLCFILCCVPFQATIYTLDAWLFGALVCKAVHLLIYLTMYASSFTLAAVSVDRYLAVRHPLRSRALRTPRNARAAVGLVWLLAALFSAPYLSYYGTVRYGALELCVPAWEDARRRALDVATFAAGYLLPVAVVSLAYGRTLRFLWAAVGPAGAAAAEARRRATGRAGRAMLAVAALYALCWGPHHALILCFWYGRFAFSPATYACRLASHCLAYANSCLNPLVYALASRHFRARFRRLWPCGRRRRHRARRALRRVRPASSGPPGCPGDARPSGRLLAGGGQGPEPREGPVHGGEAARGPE

cells [10] = assay type: functional, cell-based; settings: HEK-CNG
[11] = target: T4, COUP transcription factor 2 (Homo sapiens, UniProt P24468); assay: Luminescence-based cell-based high throughput dose response assay to identify inhibitors of COUP-TFII (NR2F2).; assay type: functional;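 further: HEK293 cells transiently cotransfected with COUP-TFII expression vector and reporter; luciferase reporter luminescence driven by COUP-TFII from the pX2-168 reporter plasmid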
T4 sequence (P24468 whole entry): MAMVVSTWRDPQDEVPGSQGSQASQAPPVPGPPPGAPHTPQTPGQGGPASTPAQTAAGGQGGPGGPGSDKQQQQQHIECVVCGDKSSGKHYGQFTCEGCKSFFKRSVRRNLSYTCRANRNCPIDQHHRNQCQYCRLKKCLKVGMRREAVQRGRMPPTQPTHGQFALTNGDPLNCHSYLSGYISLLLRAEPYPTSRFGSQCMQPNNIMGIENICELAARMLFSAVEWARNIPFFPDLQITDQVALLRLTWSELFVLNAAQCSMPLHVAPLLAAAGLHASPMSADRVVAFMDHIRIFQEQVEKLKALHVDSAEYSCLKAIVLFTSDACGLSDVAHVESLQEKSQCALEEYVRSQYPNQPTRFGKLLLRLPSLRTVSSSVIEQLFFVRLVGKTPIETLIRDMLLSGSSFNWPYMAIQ

HEK293 [12] = assay: cells; settings: Homo sapiens
[13] = microbe, parasite or virus in culture; assay type: functional; settings: Mycobacterium tuberculosis
[14] = target: T5, Ubiquitin-conjugating enzyme E2 N (Homo sapiens, UniProt P61088); assay type: functional;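 further: Dose-response confirmation in a TR-FRET assay detecting UBC13-driven polyubiquitin chain formation, inhibition measured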
T5 sequence (P61088 whole entry): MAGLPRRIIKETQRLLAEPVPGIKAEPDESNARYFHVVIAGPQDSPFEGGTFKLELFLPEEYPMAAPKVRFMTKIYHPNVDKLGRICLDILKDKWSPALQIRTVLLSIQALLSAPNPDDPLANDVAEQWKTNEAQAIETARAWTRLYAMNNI

Melanocortin receptor 4 = Melanocortin receptor 4 (Homo sapiens, UniProt P32245); assay type: functional, cell-based;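 further: Cell-based assay with luminescence read-out, confirmatory dose-response testing for agonist activity of biased ligands at MC4R; human U2OS cells with tagged receptor and beta-arrestin; potency of agonists that increase receptor coupling to beta-arrestin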
Melanocortin receptor 4, sequence (P32245 whole entry): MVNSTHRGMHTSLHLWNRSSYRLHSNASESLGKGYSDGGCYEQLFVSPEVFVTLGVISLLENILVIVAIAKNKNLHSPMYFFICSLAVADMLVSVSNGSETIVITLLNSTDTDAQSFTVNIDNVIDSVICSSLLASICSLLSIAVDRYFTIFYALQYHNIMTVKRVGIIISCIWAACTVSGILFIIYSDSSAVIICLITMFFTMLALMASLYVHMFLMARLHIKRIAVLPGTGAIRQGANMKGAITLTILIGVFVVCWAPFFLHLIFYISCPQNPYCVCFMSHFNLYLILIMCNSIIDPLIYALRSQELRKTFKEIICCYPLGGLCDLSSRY

Paired box protein Pax-8 = Paired box protein Pax-8 (Homo sapiens, UniProt Q06710); assay: PAX8 transcriptional activity inhibition in RMG-I – RMG-I cells, luciferase, cherry-pick, dose response (AID 687027); assay type: functional, cell-based;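 further: luciferase reporter driven by Pax8 target thyroperoxidase promoter measured by SteadyGlo luminescence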
Paired box protein Pax-8, sequence (Q06710 whole entry): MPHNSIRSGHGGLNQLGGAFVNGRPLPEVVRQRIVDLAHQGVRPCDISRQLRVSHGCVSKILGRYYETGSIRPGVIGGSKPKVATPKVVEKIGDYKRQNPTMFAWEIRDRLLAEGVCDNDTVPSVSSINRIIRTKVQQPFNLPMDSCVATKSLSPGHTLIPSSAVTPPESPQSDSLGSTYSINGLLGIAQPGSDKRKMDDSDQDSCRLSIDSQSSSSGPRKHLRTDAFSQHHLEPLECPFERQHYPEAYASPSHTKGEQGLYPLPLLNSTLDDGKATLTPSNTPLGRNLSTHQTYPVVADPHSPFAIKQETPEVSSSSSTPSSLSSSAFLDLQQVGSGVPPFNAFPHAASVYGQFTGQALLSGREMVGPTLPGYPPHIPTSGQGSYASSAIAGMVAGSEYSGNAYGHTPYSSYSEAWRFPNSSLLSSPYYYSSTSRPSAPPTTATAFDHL

[15] = OVCAR-3 cell viability loss – plate reader, dry powder samples, PAX8 inhibitor project, dose response (AID 743044); assay type: functional, cell-based
[16] = IGROV1 cell killing – plate reader, dry powder samples, PAX8 inhibitor project, dose response (AID 743043); assay type: functional, cell-based; settings: IGROV-1
[17] = OVCAR8 cell viability loss – plate reader, dry powder samples, PAX8 project, dose response (AID 743197); assay type: functional, cell-based; settings: OVCAR-8
[18] = target: T6, Oxysterols receptor LXR-beta (Homo sapiens, UniProt P55055); assay type: functional, cell-based;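 further: agonist activity at LXR measured by a cell-based luminescence readout across a dose range, run as a counterscreen for daf-12 agonists; HEK293 cells with Gal4-LXR fusion and GAL4-driven luciferase reporter; potency for activation of Gal4-LXR reporter so compounds are agonists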
T6 sequence (P55055 whole entry): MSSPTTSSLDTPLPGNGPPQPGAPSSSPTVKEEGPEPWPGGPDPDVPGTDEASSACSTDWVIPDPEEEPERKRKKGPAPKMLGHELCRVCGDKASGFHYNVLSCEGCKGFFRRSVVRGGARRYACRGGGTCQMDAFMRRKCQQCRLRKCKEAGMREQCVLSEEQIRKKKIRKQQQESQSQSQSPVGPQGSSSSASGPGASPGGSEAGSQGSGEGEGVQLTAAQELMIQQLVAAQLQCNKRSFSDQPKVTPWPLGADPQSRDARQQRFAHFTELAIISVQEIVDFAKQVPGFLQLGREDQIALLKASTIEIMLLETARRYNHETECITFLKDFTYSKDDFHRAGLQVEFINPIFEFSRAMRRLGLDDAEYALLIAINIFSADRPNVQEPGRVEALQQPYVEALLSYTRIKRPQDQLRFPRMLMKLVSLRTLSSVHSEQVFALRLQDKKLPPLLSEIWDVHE

[19] = T. cruzi growth inhibition in host cells, dose response, cell-based, plate reader, dry powder, set 2 (AID 652275); assay type: functional
cells [20] = assay type: functional, cell-based
cells [21] = assay type: functional, cell-based; remark: listed apart in the source

## CCn1cc(/C=C/C(=O)c2ccc(O)cc2)c(C)n1
HEK293 [1]
  IC50: > 67.5 µM (inactive)
[2]
  IC50: > 67.5 µM (inactive)

## COc1ccccc1OCc1ccc(C(=O)N2CCN(C(=O)c3ccco3)CC2)cc1
[3]
  IC50: 36 µM (inactive)

## CC1CCN(C(=O)c2cc(-c3ccccc3O)on2)CC1
HeLa
  AC50: 129 µM (active)

## COc1ccc(/C=C/C(=O)c2ccc(NS(=O)(=O)c3ccc(C)cc3)cc2)cc1O
[4]
  AC50: 2.69 µM (active)
[5]
  EC50: 32.2 µM (active)
Vero [6]
  IC50: > 25 µM (active)
Vero [7]
  CC50: 17.9 µM (active)

## COC(=O)c1ccc(COC(=O)C23CC4CC(CC(O)(C4)C2)C3)o1
[3]
  IC50: 17.4 µM (inactive)

## CCS(=O)(=O)N1CCN(c2nc(-c3ccccc3)cs2)CC1
HeLa
  AC50: 61.6 µM (active)

## O=C(Nc1nc(-c2cccs2)cs1)c1cccc(S(=O)(=O)N2CCCCCC2)c1
Protein Wnt-3a
  IC50: 19.2 µM (active)

## CCOc1ccc(NC(=O)Cc2cccc3ccccc23)c([N+](=O)[O-])c1
[8]
  IC50: > 67.5 µM (inactive)

## Cn1nccc1C(=O)NC1CCCc2c1cnn2-c1ccc(C(C)(C)C)cc1 (stereo not drawn)
Tumor necrosis factor
  IC50: 0.2 µM (active)
[9]
  IC50: 0.232 µM (active)
INS1
  AC50: 1.62 µM (active)
Galanin receptor type 3
  IC50: 0.143 µM (active)
Cells [10]
  EC50: > 29.9 µM (inactive)
[11]
  IC50: 1.25 µM (active)
HEK293 [12]
  IC50: 16.4 µM (active)

## COc1ccc(C(=O)Nc2nncs2)cc1S(=O)(=O)N1CC(c2ccccc2)CC1=O (stereo not drawn)
HEK293 [1]
  IC50: > 67.5 µM (inactive)
[2]
  IC50: > 67.5 µM (inactive)

## CN(C)CCOc1ccc(-c2c(-c3ccsc3)sc3ccccc23)cc1
[13]
  CC50: 11.3 µM (active)
[4]
  AC50: 3.47 µM (active)
[14]
  IC50: > 20 µM (inactive)
Melanocortin receptor 4
  EC50: > 89.2 µM (inactive)

## CCN(CC)C(=O)OCc1c(-c2ccccc2)ncc2ccccc12
HeLa
  AC50: 110 µM (active)

## CC(=O)Nc1cc(-c2ccc(F)cc2)cn2c(-c3ccc(F)c(Cl)c3)cnc12
Melanocortin receptor 4
  EC50: > 89.2 µM (inactive)

## C[C@@H]1CN([C@H](C)CO)C(=O)c2cc(NC(=O)Nc3ccccc3)ccc2O[C@@H](C)CCCCO[C@@H]1CN(C)Cc1ccc(C(F)(F)F)cc1
Paired box protein Pax-8
  AC50: 6.35 µM (active)
[15]
  AC50: 28.6 µM (active)
[16]
  AC50: 51.4 µM (active)
[17]
  AC50: 61.8 µM (active)

## C[C@H](CO)N1C[C@H](C)[C@@H](CN(C)Cc2ccc(C(F)(F)F)cc2)OCCCC[C@H](C)Oc2ccc(NS(=O)(=O)c3ccc(Cl)cc3)cc2C1=O
Paired box protein Pax-8
  AC50: 7.37 µM (active)
[15]
  AC50: 14.5 µM (active)
[16]
  AC50: 21.7 µM (active)
[17]
  AC50: 34.1 µM (active)

## N#C/C(=N\Nc1ccc(Cl)cc1)C(=N)N1CCCCCC1
HEK293 [1]
  IC50: > 0.833 µM (active)
[2]
  IC50: > 67.5 µM (inactive)
[18]
  EC50: > 67.5 µM (inactive)

## CN(C)CC#Cc1cccc(-c2nc(C(=O)NCCCN3CCOCC3)cc3c2[C@H](CCO)N([S+]([O-])C(C)(C)C)C3)c1 (stereo partly drawn)
[19]
  AC50: 1.24 µM (active)

## CC(C)N1C[C@H](C)[C@@H](CN(C)Cc2ccc(Cl)cc2)Oc2c(cccc2-c2nnn(-c3ccncc3)n2)C1=O
[19]
  AC50: 0.12 µM (active)

## Oc1ccc(Cl)cc1/C=N/CCc1ccccc1
Cells [20]
  IC50: 9.79 µM (active)
Cells [21]
  EC50: > 29.9 µM (inactive)

## CCCn1c2c(c(=N)c3c1CCC3)CCCC2
Protein Wnt-3a
  IC50: 37 µM (inactive)
